Consider 1 compound from patent publication US12612358B2, “Resorcinol-based compounds and uses thereof” (priority 2020, dated 2026).

For one data set, the system named is U251 (glioblastoma). As to the kind of experiment: Cell proliferation, U251 glioblastoma cells. The format is cell-based. To be noted: Homo sapiens, U-251, read-out: IC50 category. From the text: (§1) Effects of Compound-5B on cell proliferation in additional cancer cells: To determine whether Compound-5B would have broad based anticancer activity, we study whether Compound-5B would be effective at inhibiting cell proliferation in a variety of cancers overexpressing Id-1. The assay conditions used were identical to those presented for breast and pancreatic cancers. Indeed, Compound-5B was potent at inhibiting cell proliferation in blood cancer (leukemia), glioblastoma, prostate, and ovarian cancer.

The test system of another data set is CYP450 isoforms. The data set is described as follows: CYP450 isoform inhibition. The format is in vitro ADME. The following applies: 1 μM. On the procedure: (§2) Evaluating ADME of Compound-5B in vitro. It is important to evaluate ADME first in culture as it allows for the selection of the best candidate for PK analysis in vivo. ADME analysis of Compound-5B was performed by Eurofins.

For data set [1], the target named is T1, HRH2 (Histamine receptor) (Homo sapiens, UniProt P25021).
T1 construct: purchased Eurofin's
As to the kind of experiment: SAFETY scan E/IC50 ELECT, HRH2. Format: biochemical. To be noted: read-out: inhibition against HRH2 (mild).

A further data set relates to mouse 4T1 TNBC. The data set is described as follows: Cell proliferation, 4T1 TNBC cells. The format is cell-based. The following applies: mouse 4T1 TNBC cells; read-out: IC50 group for inhibition of cell proliferation.
Data set [2] has as its system MDA-MB231 cells. The data set is described as follows: MDA-MB231 mammary fat pad primary tumor model in athymic nu/nu mice. To be noted: MDA-MB231, 1 mg/kg i.p. once daily, 6 days a week. Format: in vivo, mouse. On the procedure:
Antitumor activity of Compound-5B in vivo in breast cancer. Based on the activity of Compound-5B in culture, the antitumor activity of Compound-5B was tested in vivo in two models of breast cancer (FIG. 4). Compound-5B produced a potent inhibition of Id-1 expression in human MDA-MB231 cells (FIG. 1A). We also determined whether it produced a similar effect in mouse 4T1 breast cancer cells. This cell line is commonly used for seeding a lung metastatic model in mice. […] LC=loading control (FIG. 4A). […] Lung metastases were generated in BALB/c mice by tail vein injection of 4×10^4 4T1 cells. Two days after the injection, the tumor bearing mice were injected i.p. once a day, six days a week, with vehicle or Compound 5B three weeks. Lung metastasis % (total metastatic foci in treated/vehicle×100) was evaluated (FIG. 4B). […] Animals with established tumors (average volume of 100 mm^3) were randomized and treated once daily, 6 days a week, with i.p., injections of vehicle, or 1 mg/kg Compound-5B, tumors were measured once weekly by an operator blinded to the treatment groups. Changes in tumor volume (mm^3) were calculated as (length×width2)/2. *indicates statistically significant differences between vehicle and Compound-5B (p<0.05, Two-way ANOVA repeated measures, and Tukey's multiple comparisons test).

Data set [3] has as its target T2, ADRB1 (β-Adrenergic receptor) (Homo sapiens, UniProt P08588).
T2 construct: purchased Eurofin's
The data set is described as follows: SAFETY scan E/IC50 ELECT, ADRB1. The format is biochemical. The following applies: read-out: inhibition against ADRB1 (mild).

The next data set has as its target T3, CYP2C8 (Homo sapiens, UniProt P10632).
T3 construct: purchased Eurofins
As to the kind of experiment: CYP2C8 inhibition. Format: in vitro ADME. To be noted: 10 μM. The protocol:
as §2

Data set [4] can be described thus: Mouse liver microsome stability (Eurofins ADME). The format is in vitro ADME. The protocol:
as §2

Data set [5] is described as follows: Plasma protein binding (Eurofins ADME). Format: in vitro ADME. The protocol: as §2
The next data set concerns DU145 (prostate). As to the kind of experiment: Cell proliferation, DU145 prostate cancer cells. The following applies: Homo sapiens, DU-145, read-out: IC50 category. The format is cell-based.
Description: as §1

The test system of data set [6] is MDA-MB231 cells. The data set is described as follows: Invasion in modified Boyden chambers, MDA-MB231 cells. Format: cell-based, human. The protocol:
Effects of Compound-5B on breast cancer cell proliferation, Id-1 expression and invasion in culture. […] The ability of the cells to migrate and invade in modified Boyden chambers was determined. The percentage relative invasion was calculated as the effect on treated cells/vehicle cells×100. Respective controls (vehicle treated cells) were set as 100%.

Data set [7] can be described thus: Aqueous solubility (Eurofins ADME). Format: physicochemical. On the procedure: as §2
In the next data set the test system is PANC-1 tumors. The data set is described as follows: PANC-1 subcutaneous xenograft in athymic nu/nu mice. The format is in vivo.
The subject of the next data set is 468 kinases. The data set is described as follows: Eurofin's Kinome scan assay. To be noted: 1 μM and 10 μM.
In a further data set the test system is Id-1. As to the kind of experiment: Id-1 expression in MDA-MB231 cells (Western analysis). Format: cell-based, human. The protocol:
Quantitative Western analysis: Cells are cultured and treated in 6-well dishes. After the cells are washed twice with cold PBS, lysis buffer is added. The cells are then lysed by freezing for 10 min at −70° C. and then thawing at ambient temperature. The cell lysate is collected and the protein content is determined by using Bradford reagent. Equal amounts of protein are heated at 90° C. in Laemmli sample buffer which also included β-mercaptoethanol. The samples are then loaded onto a precast SDS-PAGE gel (Bio-Rad Laboratories, Hercules, CA). After which, proteins are then electroblotted onto an Immobilon membrane (Millipore, Billerica, MA) overnight at 2-4° C. The membrane is then blocked for 1 hour with 5% nonfat dry milk which included TBS+Tween. The membranes are then incubated with an anti-Id-1 primary antibody, and then an appropriate secondary antibody was used. Blots are incubated for 45 min and then washed 4 times with TBS+Tween for 15 min each. […]
Effects of Compound-5B on breast cancer cell proliferation, Id-1 expression and invasion in culture. […] The ability of the cells to migrate and invade in modified Boyden chambers was determined. The percentage relative invasion was calculated as the effect on treated cells/vehicle cells×100. […]

Another data set deals with T4, hERG (Homo sapiens, UniProt Q12809).
T4 construct: purchased Eurofins
As to the kind of experiment: hERG channel inhibition. The format is biochemical. The protocol:
as §2

For data set [8], the target named is T5, ADRB2 (β-Adrenergic receptor) (Homo sapiens, UniProt P07550).
T5 construct: purchased Eurofin's
The data set is described as follows: SAFETY scan E/IC50 ELECT, ADRB2. The format is biochemical. To be noted: read-out: inhibition against ADRB2 (mild).

The subject of a further data set is MDA-MB231 D3H. As to the kind of experiment: CellTiter-Glo viability/proliferation assay, MDA-MB231 breast cancer cells. The format is cell-based. To be noted: Homo sapiens, MDA-MB-231, 48 h; CellTiter-Glo, two-day treatment; read-out: Inhibition of MDA-MB231 D3H.

T5 sequence (P07550 whole entry): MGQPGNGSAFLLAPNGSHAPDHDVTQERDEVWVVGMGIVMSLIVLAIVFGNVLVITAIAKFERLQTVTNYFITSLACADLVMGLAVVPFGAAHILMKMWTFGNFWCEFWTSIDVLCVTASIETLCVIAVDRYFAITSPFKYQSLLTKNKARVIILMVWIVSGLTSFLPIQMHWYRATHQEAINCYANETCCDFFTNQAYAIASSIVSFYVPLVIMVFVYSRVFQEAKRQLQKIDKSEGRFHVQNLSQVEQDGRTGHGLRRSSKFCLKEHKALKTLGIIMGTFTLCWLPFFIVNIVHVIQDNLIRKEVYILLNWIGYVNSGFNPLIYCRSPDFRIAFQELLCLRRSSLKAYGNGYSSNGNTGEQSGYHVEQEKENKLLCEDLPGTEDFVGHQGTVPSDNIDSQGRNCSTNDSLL
T1 sequence (P25021 whole entry): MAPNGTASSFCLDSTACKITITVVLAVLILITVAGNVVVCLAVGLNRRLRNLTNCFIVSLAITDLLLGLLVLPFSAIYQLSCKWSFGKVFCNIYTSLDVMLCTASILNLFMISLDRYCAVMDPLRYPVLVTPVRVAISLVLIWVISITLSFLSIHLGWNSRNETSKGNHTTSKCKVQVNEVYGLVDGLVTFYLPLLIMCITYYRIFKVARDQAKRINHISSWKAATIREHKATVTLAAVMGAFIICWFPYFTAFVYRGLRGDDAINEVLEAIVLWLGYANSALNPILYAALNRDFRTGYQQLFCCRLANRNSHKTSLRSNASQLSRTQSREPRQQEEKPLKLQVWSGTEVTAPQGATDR
T2 sequence (P08588 whole entry): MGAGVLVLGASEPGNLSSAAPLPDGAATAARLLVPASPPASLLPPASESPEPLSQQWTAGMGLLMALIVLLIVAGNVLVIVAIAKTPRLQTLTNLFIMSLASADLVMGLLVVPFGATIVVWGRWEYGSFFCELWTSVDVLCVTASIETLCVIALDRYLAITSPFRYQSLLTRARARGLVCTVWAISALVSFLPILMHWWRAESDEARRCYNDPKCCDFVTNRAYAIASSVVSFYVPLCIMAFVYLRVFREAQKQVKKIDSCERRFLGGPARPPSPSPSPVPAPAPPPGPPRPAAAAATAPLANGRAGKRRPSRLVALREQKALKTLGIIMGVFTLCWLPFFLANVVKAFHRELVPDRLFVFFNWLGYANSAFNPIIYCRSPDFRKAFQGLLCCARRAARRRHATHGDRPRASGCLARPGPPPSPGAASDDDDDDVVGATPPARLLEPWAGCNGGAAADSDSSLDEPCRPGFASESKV
T3 sequence (P10632 whole entry): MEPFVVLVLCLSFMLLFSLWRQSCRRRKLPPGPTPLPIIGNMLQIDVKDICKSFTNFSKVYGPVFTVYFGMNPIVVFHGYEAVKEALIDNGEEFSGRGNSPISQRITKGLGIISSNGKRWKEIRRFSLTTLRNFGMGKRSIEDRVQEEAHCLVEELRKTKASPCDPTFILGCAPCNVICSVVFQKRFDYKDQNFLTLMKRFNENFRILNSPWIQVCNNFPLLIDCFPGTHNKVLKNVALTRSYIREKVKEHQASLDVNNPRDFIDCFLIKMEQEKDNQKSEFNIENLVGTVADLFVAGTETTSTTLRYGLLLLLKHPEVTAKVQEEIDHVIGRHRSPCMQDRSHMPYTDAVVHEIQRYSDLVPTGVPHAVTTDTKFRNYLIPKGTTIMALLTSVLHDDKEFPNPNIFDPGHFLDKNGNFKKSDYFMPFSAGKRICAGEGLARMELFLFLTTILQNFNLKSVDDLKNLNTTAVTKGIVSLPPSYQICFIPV
T4 sequence (Q12809 whole entry): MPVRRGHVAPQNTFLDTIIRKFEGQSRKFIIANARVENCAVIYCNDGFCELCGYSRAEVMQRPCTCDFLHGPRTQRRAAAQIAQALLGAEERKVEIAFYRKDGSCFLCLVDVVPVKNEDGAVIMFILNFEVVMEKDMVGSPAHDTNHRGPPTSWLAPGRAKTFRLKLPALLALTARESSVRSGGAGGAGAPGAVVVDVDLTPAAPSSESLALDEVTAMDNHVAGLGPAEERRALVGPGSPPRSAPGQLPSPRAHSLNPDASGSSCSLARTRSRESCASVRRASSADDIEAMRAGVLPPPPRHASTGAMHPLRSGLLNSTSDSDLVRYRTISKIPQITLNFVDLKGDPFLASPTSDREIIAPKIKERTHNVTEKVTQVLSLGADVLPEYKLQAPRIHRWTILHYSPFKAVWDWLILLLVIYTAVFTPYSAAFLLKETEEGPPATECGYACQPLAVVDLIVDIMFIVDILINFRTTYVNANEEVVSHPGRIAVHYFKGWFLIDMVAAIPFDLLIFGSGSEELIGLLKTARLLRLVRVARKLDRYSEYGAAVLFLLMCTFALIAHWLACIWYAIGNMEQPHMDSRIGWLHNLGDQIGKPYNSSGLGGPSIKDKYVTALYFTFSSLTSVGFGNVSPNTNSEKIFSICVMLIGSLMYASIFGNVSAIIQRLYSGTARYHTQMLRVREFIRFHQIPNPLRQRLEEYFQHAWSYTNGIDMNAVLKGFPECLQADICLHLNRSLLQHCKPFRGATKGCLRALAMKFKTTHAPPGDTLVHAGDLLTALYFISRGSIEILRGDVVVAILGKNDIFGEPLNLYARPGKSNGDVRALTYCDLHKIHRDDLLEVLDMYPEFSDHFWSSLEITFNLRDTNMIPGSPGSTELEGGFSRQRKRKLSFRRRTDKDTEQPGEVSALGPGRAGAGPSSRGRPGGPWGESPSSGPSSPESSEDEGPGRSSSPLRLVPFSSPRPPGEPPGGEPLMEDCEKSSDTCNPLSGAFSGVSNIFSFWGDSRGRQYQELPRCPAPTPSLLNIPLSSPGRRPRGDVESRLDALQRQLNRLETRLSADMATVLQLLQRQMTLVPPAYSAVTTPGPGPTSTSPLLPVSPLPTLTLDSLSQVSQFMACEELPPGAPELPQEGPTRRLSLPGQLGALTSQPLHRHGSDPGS
Description for 468 kinases: Eurofin's Kinome scan assay was used to screen Compound-5B against 468 kinases at 1 μM and 10 μM concentrations. […] In order to understand any potential pharmacological cross reactivity, a known contributor to clinical adverse drug reactions Compound-5B was tested in SAFETY scan E/IC50 ELECT.

For `CCCCCCC(C)(C)c1cc(O)c(C(=O)Nc2ccccc2)c(O)c1` [Compound 5B, 2,6-dihydroxy-4-(2-methyloctan-2-yl)-N-phenylbenzamide], the IC50 in the data set with U251 (glioblastoma) was < 0.5 µM; in data set [1], 0.64 to 0.75 µM; in the data set with mouse 4T1 TNBC it was 0.5 to 1 µM; in data set [3], 0.64 to 0.75 µM; in the data set on DU145 (prostate) it was < 0.5 µM; in data set [8], 0.64 to 0.75 µM. For the same compound, the IC50 with MDA-MB231 D3H is < 0.5 µM. Besides, the “inhibition of important CYP450 isoforms” value in the data set with CYP450 isoforms is “does not inhibit”. Besides, the primary tumor growth result with MDA-MB231 cells [2] is “able to inhibit primary tumor growth”. Also, at CYP2C8, the “inhibition of CYP2C8” value is reported as “some inhibition”. For the same compound, the “clearance (microsomal stability assays)” value in data set [4] is “acceptable”. Moreover, the “half-life (microsomal stability assays)” value in data set [4] is reported as “acceptable”. Also, the “stability in mouse liver microsomes” value in [4] was “good”. Also, the plasma protein binding entry in data set [5] is listed as “high”. The “invasion of MDA-MB231 cells” value with MDA-MB231 cells [6] is “inhibits the invasion”. Besides, in data set [7], the aqueous solubility result is reported as “low”. The “weight loss (metric of drug toxicity)” value in the data set on PANC-1 tumors (PANC-1 tumor mice, Compound-5B 10 mg/kg i.p. daily, gemcitabine 50 mg/kg i.p. three times a week) was “no significant weight loss”. Also, the “growth of PANC-1 tumors” value in the data set with PANC-1 tumors (athymic nu/nu mice, 10 mg/kg i.p. once daily) was “reduced the growth of PANC-1 tumors as effectively as gemcitabine”. In addition, the “inhibition of 468 kinases” value in the data set on 468 kinases was “No significant inhibition”. Further, in the data set with Id-1, the “inhibition of Id-1 expression” value was “significant potency”. Further, on hERG, the “inhibition of cardiac channel hERG” value is given as “no inhibition”.
